Data as given in patent US10968227B2, “Isoquinoline ether compounds as mGluR4 allosteric potentiators, compositions, and methods of treating neurological dysfunction” (Vanderbilt University, priority 2016, dated 2021).
Values after ≈ are worked out from the molar mass of the structure shown.

Key:
[1] = Rat brain fraction unbound; type: in vitro ADME; conditions: read-out: Rat Fu Brain
2D6 = 2D6 (Homo sapiens (Human), UniProt P10635); experiment: CYP 2D6 inhibition; type: in vitro ADME
[2] = Human plasma fraction unbound; type: in vitro ADME; conditions: read-out: Human Fu Plasma
[3] = Rat intrinsic and hepatic clearance; type: in vitro ADME
2C9 = 2C9 (Homo sapiens (Human), UniProt P11712); experiment: CYP 2C9 inhibition; type: in vitro ADME
1A2 = 1A2 (Homo sapiens (Human), UniProt P05177); experiment: CYP 1A2 inhibition; type: in vitro ADME
Brain-plasma partition = type: in vivo; conditions: rat; for unbound brain-to-plasma partition coefficient (Kp,uu): unbound brain-plasma ratio, read-out: Brain-Plasma Kp,ω
[4] = Human intrinsic and hepatic clearance; type: in vitro ADME
3A4 = 3A4 (Homo sapiens (Human), UniProt P08684); experiment: CYP 3A4 inhibition; type: in vitro ADME
mGlu4 = mGlu4 (Homo sapiens, UniProt Q14833); experiment: mGluR4 potentiation (PAM) fluorescence assay with EC20 agonist; type: cell-based
Procedure: The disclosed compounds and compositions can be evaluated for their ability to act as a potentiator of metabotropic glutamate receptor activity, in particular mGluR4 activity, by any suitable known methodology known in the art. For example, Chinese Hamster Ovary (CHO) cells transfected with human mGluR4 or HEK cells co-transfected with rat mGuR4 and the G-protein regulated Inwardly Rectifying Potassium channel (GIRK) were plated in clear bottom assay plates for assay in a Hamamatsu FDSS Fluorometric Plate Reader. The cells were loaded with either a Ca2+-sensitive fluorescent dye or the thallium responsive dye and the plates were washed and placed into a suitable kinetic plate reader. For human mGuR4 assays, a fluorescence baseline was established for 3-5 seconds, the disclosed compounds were then added to the cells, and the response in cells was measured. Approximately two and a half minutes later, a concentration of mGuR4 orthosteric agonist (e.g. glutamate or L-AP4) eliciting approximately 20% (EC20) of the maximal agonist response was added to the cells, and the response was measured. Two minutes later, a concentration of mGluR4 agonist (e.g. glutamate or L-AP4) eliciting 80% (EC80) of the maximal agonist response was added to the cells, and the response was measured. […] If the compound acts as a noncompetitive antagonist, an IC50 value is determined by non-linear curve fitting. […]

[5] = Rat plasma fraction unbound; type: in vitro ADME; conditions: read-out: Rat Fu Plasma
Rat in vivo clearance = conditions: read-out: Rat in Vivo CL
Kinetic solubility = type: physicochemical; conditions: kinetic from dmso stock

3A4, sequence (P08684 whole entry): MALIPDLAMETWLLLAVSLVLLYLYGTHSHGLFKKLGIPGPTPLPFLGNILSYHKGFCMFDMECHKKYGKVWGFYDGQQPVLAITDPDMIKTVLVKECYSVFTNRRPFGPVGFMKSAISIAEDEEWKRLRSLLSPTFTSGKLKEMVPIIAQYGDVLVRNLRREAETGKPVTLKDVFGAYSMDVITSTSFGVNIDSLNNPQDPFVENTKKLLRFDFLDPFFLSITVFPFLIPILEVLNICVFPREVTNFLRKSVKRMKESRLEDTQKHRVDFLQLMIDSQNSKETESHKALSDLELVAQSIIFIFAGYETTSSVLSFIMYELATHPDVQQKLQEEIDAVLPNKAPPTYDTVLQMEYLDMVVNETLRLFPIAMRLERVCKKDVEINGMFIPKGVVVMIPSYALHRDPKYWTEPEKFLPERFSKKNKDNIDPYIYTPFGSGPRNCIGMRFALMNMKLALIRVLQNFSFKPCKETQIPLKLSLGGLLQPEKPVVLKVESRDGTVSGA
1A2, sequence (P05177 whole entry): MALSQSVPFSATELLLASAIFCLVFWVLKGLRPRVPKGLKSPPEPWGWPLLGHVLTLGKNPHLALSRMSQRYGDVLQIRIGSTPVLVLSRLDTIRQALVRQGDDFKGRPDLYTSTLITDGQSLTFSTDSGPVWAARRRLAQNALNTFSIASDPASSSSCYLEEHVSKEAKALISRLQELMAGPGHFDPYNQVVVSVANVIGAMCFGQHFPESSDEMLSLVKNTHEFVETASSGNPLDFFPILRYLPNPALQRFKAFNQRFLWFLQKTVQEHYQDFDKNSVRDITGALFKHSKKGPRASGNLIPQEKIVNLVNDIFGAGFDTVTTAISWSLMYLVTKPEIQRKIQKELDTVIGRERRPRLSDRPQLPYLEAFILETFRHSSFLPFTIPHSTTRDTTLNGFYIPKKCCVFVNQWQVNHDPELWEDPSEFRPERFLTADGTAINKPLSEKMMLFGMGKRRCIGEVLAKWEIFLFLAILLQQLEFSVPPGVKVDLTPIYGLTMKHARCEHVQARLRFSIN
2C9, sequence (P11712 whole entry): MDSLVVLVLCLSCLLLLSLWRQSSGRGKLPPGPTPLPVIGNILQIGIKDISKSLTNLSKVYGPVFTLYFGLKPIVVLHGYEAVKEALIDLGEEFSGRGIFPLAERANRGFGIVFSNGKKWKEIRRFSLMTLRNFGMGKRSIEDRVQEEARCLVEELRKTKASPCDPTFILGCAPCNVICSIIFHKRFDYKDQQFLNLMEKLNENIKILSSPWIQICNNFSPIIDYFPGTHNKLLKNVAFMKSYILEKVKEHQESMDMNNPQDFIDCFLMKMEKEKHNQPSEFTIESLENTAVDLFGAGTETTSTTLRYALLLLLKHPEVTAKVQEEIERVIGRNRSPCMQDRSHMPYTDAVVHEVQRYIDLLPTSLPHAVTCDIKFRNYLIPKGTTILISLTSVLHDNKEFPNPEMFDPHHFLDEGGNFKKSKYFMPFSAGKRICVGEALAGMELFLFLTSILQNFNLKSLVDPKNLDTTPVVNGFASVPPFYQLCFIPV
2D6, sequence (P10635 whole entry): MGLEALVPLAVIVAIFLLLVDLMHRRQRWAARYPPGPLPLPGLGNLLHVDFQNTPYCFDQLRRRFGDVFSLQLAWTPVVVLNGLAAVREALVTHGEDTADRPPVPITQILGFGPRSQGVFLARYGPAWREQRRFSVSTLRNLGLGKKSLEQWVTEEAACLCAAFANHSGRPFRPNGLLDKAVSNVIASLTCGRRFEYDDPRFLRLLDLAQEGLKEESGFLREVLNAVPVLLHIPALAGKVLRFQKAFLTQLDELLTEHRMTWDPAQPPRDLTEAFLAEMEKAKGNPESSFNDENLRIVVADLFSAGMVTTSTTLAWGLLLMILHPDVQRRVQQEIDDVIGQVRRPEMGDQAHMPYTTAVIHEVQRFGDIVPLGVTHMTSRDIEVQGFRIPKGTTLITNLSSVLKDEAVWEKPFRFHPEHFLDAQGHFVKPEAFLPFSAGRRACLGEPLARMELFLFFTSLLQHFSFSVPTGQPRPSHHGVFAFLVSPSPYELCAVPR
mGlu4, sequence (Q14833 33-912 limits assumed): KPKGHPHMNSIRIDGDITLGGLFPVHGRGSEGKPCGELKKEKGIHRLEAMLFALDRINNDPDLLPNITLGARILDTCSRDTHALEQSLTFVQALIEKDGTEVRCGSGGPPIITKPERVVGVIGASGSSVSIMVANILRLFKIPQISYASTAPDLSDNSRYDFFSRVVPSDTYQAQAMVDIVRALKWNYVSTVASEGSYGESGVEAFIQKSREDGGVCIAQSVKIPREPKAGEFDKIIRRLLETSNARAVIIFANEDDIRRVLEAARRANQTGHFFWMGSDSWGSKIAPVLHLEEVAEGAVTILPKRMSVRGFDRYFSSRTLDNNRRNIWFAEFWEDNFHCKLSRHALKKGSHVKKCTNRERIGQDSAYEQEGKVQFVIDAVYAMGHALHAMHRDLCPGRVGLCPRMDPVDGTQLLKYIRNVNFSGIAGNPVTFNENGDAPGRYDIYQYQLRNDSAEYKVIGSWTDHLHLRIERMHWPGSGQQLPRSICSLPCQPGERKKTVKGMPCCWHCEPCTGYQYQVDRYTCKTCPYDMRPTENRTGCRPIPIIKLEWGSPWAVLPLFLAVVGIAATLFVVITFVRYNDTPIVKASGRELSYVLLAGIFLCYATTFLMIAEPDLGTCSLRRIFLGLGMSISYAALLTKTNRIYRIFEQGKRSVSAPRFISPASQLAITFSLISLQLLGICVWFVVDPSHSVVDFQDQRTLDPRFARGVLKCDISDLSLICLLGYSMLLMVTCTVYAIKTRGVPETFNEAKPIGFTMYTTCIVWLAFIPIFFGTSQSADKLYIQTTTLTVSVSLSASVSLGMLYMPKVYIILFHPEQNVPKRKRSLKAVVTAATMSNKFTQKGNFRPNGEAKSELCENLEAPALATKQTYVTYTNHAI

SMILES | fraction unbound [1] | IC50 (2D6) [µM] | fraction unbound [2] | CLint scaled [3] [mL/min/kg] | Rat CLhep [3] [mL/min/kg] | IC50 (2C9) [µM] | IC50 (1A2) [µM] | Kp (Brain-plasma partition) | unbound brain-to-plasma partition coefficient (Kp,uu) (Brain-plasma partition) | CLint scaled [4] [mL/min/kg] | Human CLhep [4] [mL/min/kg] | IC50 (3A4) [µM] | EC50 (mGlu4) [µM] | fraction unbound [5] | clearance (Rat in vivo clearance) [mL/min/kg] | solubility kinetic (Kinetic solubility) [µM]
c1cc2cc(Nc3n[nH]c4nccnc34)ccc2c(O[C@@H]2CCOC2)n1 [Compound 58] | 0.014 | > 30 | 0.032 | 122 | 44.4 | > 30 | > 30 | 1.29 | 0.33 | 32.4 | 12.7 | > 30 |  | 0.055 | 116 | 
COCCOc1nccc2cc(Nc3n[nH]c4cccnc34)ccc12 [Compound 67] | 0.007 | > 30 | 0.024 | 113 | 43.2 | 22 | 4.76 | 1.11 | 0.2 | 35.2 | 13.2 | 9.45 |  | 0.039 | 82.2 | 5.5 ± 0.5 (≈ 1.84 µg/mL)
CO[C@H](C)COc1nccc2cc(Nc3n[nH]c4cccnc34)ccc12 [Compound 70] | 0.006 | 22.5 | 0.017 | 238 | 54.1 | 6.87 | 4.96 | 2.56 | 0.48 | 57 | 15.3 | 11.4 |  | 0.032 | 74.2 | 2.9 ± 0.4 (≈ 1.01 µg/mL)
COCCOc1nccc2cc(Nc3n[nH]c4nccnc34)ccc12 [Compound 81] | 0.015 | > 30 | 0.032 | 74.4 | 36.1 | > 30 | 0.79 | 0.4 | 0.13 | 38.5 | 13.6 | > 30 |  | 0.048 |  | 0.9 ± 0.2 (≈ 0.303 µg/mL)
c1cc2cc(Nc3n[nH]c4nccnc34)ccc2c(OCC2CCOC2)n1 (centres unmarked) [Compound 85] | 0.013 | > 30 | 0.026 | 95.7 | 40.4 | > 30 | > 30 | 0.66 | 0.45 | 41.2 | 13.9 | > 30 |  | 0.019 | 36.9 | 0.6 ± 0.1 (≈ 0.217 µg/mL)
c1cc2cc(Nc3n[nH]c4nccnc34)ccc2c(OCC2COCCO2)n1 (centres unmarked) [Compound 86] | 0.018 | > 30 | 0.063 | 58.1 | 31.7 | > 30 | > 30 | 0.35 | 0.11 | 19 | 10.0 | > 30 |  | 0.057 |  | 0.6 ± 0.2 (≈ 0.227 µg/mL)
C[C@H]1C[C@H](Oc2nccc3cc(Nc4n[nH]c5cccnc45)ccc23)CO1 [Compound 87] |  | > 30 |  | 61 | 32.6 | 1.85 | 15.8 |  |  | 16 | 9.07 | > 30 |  |  | 39.1 | 0.7 ± 0.4 (≈ 0.253 µg/mL)
C[C@H]1C[C@H](Oc2nccc3cc(Nc4n[nH]c5ncccc45)ccc23)CO1 [Compound 88] | 0.003 | > 30 | 0.01 | 79.9 | 37.3 | > 30 | 17 | 2.22 | 0.21 | 18.1 | 9.71 | > 30 |  | 0.032 | 43.3 | 0.5 ± 0.2 (≈ 0.181 µg/mL)

Results, then the compound that gave them:

fraction unbound [1] | IC50 (2D6) [µM] | fraction unbound [2] | CLint scaled [3] [mL/min/kg] | Rat CLhep [3] [mL/min/kg] | IC50 (2C9) [µM] | IC50 (1A2) [µM] | Kp (Brain-plasma partition) | unbound brain-to-plasma partition coefficient (Kp,uu) (Brain-plasma partition) | CLint scaled [4] [mL/min/kg] | Human CLhep [4] [mL/min/kg] | IC50 (3A4) [µM] | EC50 (mGlu4) [µM] | fraction unbound [5] | clearance (Rat in vivo clearance) [mL/min/kg] | solubility kinetic (Kinetic solubility) [µM] | SMILES
0.003 | 22.2 | 0.007 | 348 | 58.3 | 3.56 | 8.43 | 1.09 | 0.23 | 72.3 | 16.3 | 22.6 | 0.0788 | 0.014 |  |  | c1cnc2c(Nc3ccc4c(OCC5CCCCO5)nccc4c3)n[nH]c2c1 (centres unmarked) [Compound 56]
0.004 |  | 0.011 | 211 | 52.6 |  |  | 0.89 | 0.24 | 53.8 | 15.1 |  | 0.0697 | 0.015 |  |  | c1cc2cc(Nc3n[nH]c4nccnc34)ccc2c(OCC2CCCCO2)n1 (centres unmarked) [Compound 57]
0.008 | 23.5 | 0.02 | 94.1 | 40.1 | 3.9 | 5.68 | 1.44 | 0.39 | 16.1 | 8.79 | 12.3 |  | 0.03 | 81.6 |  | c1cnc2c(Nc3ccc4c(OC5CCOCC5)nccc4c3)n[nH]c2c1 [Compound 60]
0.005 | 19.7 | 0.028 | 333 | 57.8 | 6.04 | 5.86 | 1.83 | 0.23 | 44 | 14.2 | 4.29 |  | 0.04 | 61 |  | c1cnc2c(Nc3ccc4c(O[C@H]5CCCOC5)nccc4c3)n[nH]c2c1 [Compound 61]
0.007 | > 30 | 0.02 | 94.8 | 40.3 | 10.6 | 7.99 | 1.22 | 0.2 | 29.1 | 12.2 | 27.7 |  | 0.042 | 59.8 | 4.9 ± 0.6 (≈ 1.7 µg/mL) | c1cnc2c(Nc3ccc4c(O[C@H]5CCOC5)nccc4c3)n[nH]c2c1 [Compound 64]
0.01 | > 30 | 0.038 | 120 | 44.2 | 15.3 | 16.4 | 0.57 | 0.15 | 26.5 | 11.5 | 29.5 |  | 0.039 | 32.7 | 2.4 ± 0.5 (≈ 0.906 µg/mL) | c1cnc2c(Nc3ccc4c(OCC5COCCO5)nccc4c3)n[nH]c2c1 (centres unmarked) [Compound 73]
